Active and inactive are the calls of the source.
Assays:
Mycoplasma capricolum [1] = assay: Antimicrobial activity against wild-type Mycoplasma capricolum at 3.7 ug/ml; assay type: functional
[2] = tested on: Mycoplasmoides gallisepticum; assay: Antimicrobial activity against wild-type Mycoplasma gallisepticum at 1 to 3 ug/ml; assay type: functional, organism-based
[3] = tested on: Mycoplasmoides pneumoniae; assay: Antimicrobial activity against wild-type Mycoplasma pneumoniae at 1 to 3 ug/ml; assay type: functional, organism-based
Mycoplasma capricolum [4] = assay: Antimicrobial activity against wild-type Mycoplasma capricolum at 1 to 3 ug/ml; assay type: functional
Mycoplasma genitalium = assay: Antimicrobial activity against wild-type Mycoplasma genitalium at 1 to 3 ug/ml; assay type: functional; conditions: Mycoplasmoides genitalium
Mycoplasma mycoides = assay: Antimicrobial activity against wild-type Mycoplasma mycoides at 1 to 3 ug/ml; assay type: functional
Escherichia coli = assay: Antimicrobial activity against Escherichia coli at 10 to 50 ug/ml; assay type: functional, organism-based

Measured: Activity

COc1ccc(C[C@H](N)C(=O)N[C@H]2[C@@H](O)[C@H](n3cnc4c(N(C)C)ncnc43)O[C@@H]2CO)cc1
active: all assays above

From ChEMBL document CHEMBL1649245
